Earlier results in patent US7521430B2, “N-glucoside compounds having an inhibitory activity against sodium-dependent glucose transporter” (Mitsubishi Tanabe Pharma Corporation, priority 2003, dated 2009).

Tested on: diabetic animal models
Details: continuous subcutaneous administration

O=C(CCc1ccc(O)cc1)c1c(O)cc(O)cc1O[C@@H]1O[C@H](CO)[C@@H](O)[C@H](O)[C@H]1O [phlorizin]
hyperglycemia / blood glucose level: hyperglycemia is normalized
